# Source: patent publication US20220288277A1, “SURFACE COATINGS AND IMPLANTABLE DEVICES COMPRISING DIMERIC STEROID PRODRUGS, AND USES THEREOF” (Ripple Therapeutics Corporation, priority 2019, published 2022)
# Legend:
# [1] = Coating retention / drug release from coated substrates in 100% FBS at 37 C, HPLC; type: physicochemical
# Experimental: Compound 1 was drop coated with the same total amount of compound 1 from an organic solution (acetone) onto SIBS films, Dacron films, and fibrous Dacron meshes, and drug release was carried out in 100% FBS at 37 C. The coating was extracted from the substrates at different time points and was plotted as a percentage of coating retained over time (FIG. 4).
# Substrates coated with Compound 1 by drop coating or spray coating were incubated in fetal bovine serum (FBS) to determine the amount of Compound 1 retained over time. Each coated substrate was placed in a glass vial containing 4 mL FBS and incubated at 37° C. on a rotating platform. After 1 to 4 days, the remaining coating was extracted and was determined by HPLC (FIG. 9). The amount of Compound 1 retained following 1-day incubation in FBS ranged from 15 to 100% of the initial amount loaded and roughly correlated with thickness (total loading) of the coating.
# Drug release was carried out in 100% FBS and agitation at 37 C with buffer changes and was monitored by HPLC.
# [2] = Drug release from injectable cylinders in the subcutaneous tissue of rats; type: in vivo, male Sprague Dawley rats; details: cylinders 23G-32G, 2 mm, subcutaneous with suture, 7 and 28 days
# Experimental: Cylinders of Compound 1 in various diameters (23G-32G) and 2 mm in length were processed as described in Example 1 and were loaded into needles with a piece of medical sutures as shown in FIG. 21A. The loaded needles were sterilized by ethylene oxide gas. The cylinders and sutures were injected into the dorsal subcutaneous space of male Sprague Dawley rats with starting weights of 100-124 g (Envigo, Frederick, Md. USA). Animals were euthanized at 7 and 28 days and the skin surrounding the injection sites were dissected. Pellet drug content at each time point was calculated from in-situ image analysis, confirmed by HPLC, and was plotted as cumulative drug release from the cylinders (FIG. 21C).
# [3] = Ethylene oxide (ETO) gas sterilization of coated fibrous Dacron meshes, purity and drug release pre- and post-ETO; type: physicochemical; details: ETO gas at 55° C.
# Experimental: Compound 1 coated onto fibrous Dacron meshes were sterilized by ethylene oxide (ETO) gas at a temperature of 55° C. […] Drug release was carried out in PBS at 37 C.
# [4] = Drug release from coated surfaces and extruded cylinders in PBS at 37 C, monitored by HPLC; type: physicochemical
# Source text: As stated herein, “t50” is the time at which 50% of the releasable drug has been released from a surface coating or drug depot of the disclosure. Time t10 is, correspondingly, the time at which 10% of the releasable drug has been released from a surface coating or drug depot of the disclosure. When the release curve is perfectly linear, t10=⅕ of t50. When there is an initial burst of released drug, t10 is much less than ⅕ of t50. In the compositions and methods of the disclosure t10 can be equal to or greater than 1/10 of t50. Drug release from a surface coating, drug depot, or compound of the disclosure can be measured at 37° C. in 100% bovine serum, or at 37° C. in PBS (phosphate buffered saline), as described in Example 1.
# Different substrates including poly(styrene-block-isobutylene-block-styrene) (SIBS) films, titanium coupons, and fibrous Dacron (polyethylene terephthalate) meshes (FIG. 2A) were coated with compound 1 from acetone by drop coating (FIG. 2B) forming an amorphous (glassy) coating. […] The bottom of a glass vial was coated with compound 1 and dexamethasone from dichloromethane (DCM) using the drop coating method.
# Compound 2 was dissolved in DCM and was drop coated onto the bottom of a glass vial and solvent was evaporated to form the surface coating. Drug release was carried out in PBS at 37 C with buffer changes and was monitored by HPLC.
# Compound 3 was dissolved in DCM and was drop coated onto the bottom of a glass vial and solvent was evaporated to form the surface coating. Drug release was carried out in PBS at 37 C with buffer changes and was monitored by HPLC.
# Compound 1 was formed into cylinders by heat extrusion from the intermediate glassy state by pre-melting compound 1 prior to extrusion. In vitro drug release was carried out in PBS at 37 C and drug release was quantified by HPLC. […] The cylinders can be used as a drug depot within a medical device or injected adjacent to the medical device to release dexamethasone.
# [5] = tested on: device related foreign body reaction in the rat subcutaneous model; assay: Rat study of coated substrates, morphometric image analysis of CD68 stained cross-sections; type: in vivo, female Wistar rats; details: spray coated thin films or drop coated discs, days 3 and 7, compared to non-coated substrates
# Experimental: Compound 1 was dissolved in acetone and spray coated onto thin films of a polymeric substrate or drop coated onto discs of a different polymeric substrate. Both coatings were dried at ambient conditions over night and sterilized using Ethylene oxide (ETO) gas. Coated substrates were then implanted into the dorsal subcutaneous space in female Wistar rats with starting weights of 250-290 g. Animals were euthanized at the peak of inflammatory phase in days 3 and 7. The cells in the surrounding area of both substrates were assessed by morphometric image analysis on cross-section of excised substrates with associated tissue that were stained for CD68 (inflammatory cell marker), ASMA (fibroblast marker) and DAPI ([…]). The number of recruited CD68 positive cells were reduced in response to both substrates coated with compound 1 compared to non-coated substrates. Thus, compound 1 suppresses inflammation in device related foreign body reaction and fibrosis in the rat subcutaneous model regardless of coating method or substrate.
# [6] = In vitro drug release profiles from coated discs; type: physicochemical; details: coated discs (FIG. 18B)
# device related fibrosis = assay: Rat study of coated polymeric discs, collagenous capsule wall thickness (Masson's Trichrome); type: in vivo, female Wistar rats; details: drop coated discs, subcutaneous, day 7 and day 21, versus non-coated implants
# Source text: The coatings were dried at ambient conditions over night and sterilized using Ethylene oxide (ETO) gas. Coated substrates were then implanted into the dorsal subcutaneous space in female Wistar rats with starting weights of 250-290 g. Animals were euthanized at day 7 (inflammatory phase) and day 21 (fibrotic phase) to assess the tissue response to coated versus non-coated implants. The thickness of the collagenous capsule wall surrounding the implant was quantified by morphometric image analysis on cross-section of excised capsules with associated tissue that were stained with Masson's Trichrome.
# [7] = tested on: skin surrounding the injection sites; assay: Rat study with spray coated substrates injected into the dorsal subcutaneous space; type: in vivo, male SD rats; details: highest coating amount (23.3 μg dexamethasone), day 14
# Experimental: Coatings of Compound 1 in various dexamethasone amounts (1.4-23.3 μg) were spray coated onto substrates as described in Example 4 and sterilized by ETO gas. Coated substrates were injected into the dorsal subcutaneous space of male SD rats with starting weights of 100-124 g (Envigo, Frederick, Md. USA). Animals were euthanized at 0, 3, 7 and 14 days and the skin surrounding the injection sites dissected. Coating remaining at each time point was quantified by HPLC.
# [8] = Drug release profiles of heat press versus spray coated surface coatings; type: physicochemical; details: similar drug densities (8.2-8.3 μg/mm^2)
# Experimental: Drug release profiles from Compound 1 surface coatings with similar drug densities (8.2-8.3 μg/mm^2) formed from the heat press process and spray coating process were similar (FIG. 16B), confirming that drug release is a material property and not influenced by coating technique.
"Cumulative drug release from the coated surface ([4]; drop coated from DCM onto glass vial, PBS at 37 C with buffer changes)",Molecule,"Coating retained over time ([1]; drop coated on SIBS and Dacron films (thicker, lower surface area coating))","Coating retained over time ([1]; drop coated on fibrous Dacron mesh (thin, high surface area coating))",Cumulative drug release from the cylinders in vivo [2],"Coating purity pre- and post-ETO sterilization ([3]; fibrous Dacron meshes, HPLC)",Drug release pre- and post-ETO sterilization ([3]; release in PBS at 37 C),"Drug release mechanism from extruded cylinders ([4]; cylinders extruded with 23G and 30G nozzles, PBS at 37 C)","Drug release from the coated surfaces ([4]; drop coated on SIBS, titanium, Dacron mesh, glass, PBS at 37 C)",Number of recruited CD68 positive cells [5],In vitro drug release profile [6],Capsule wall diameter (fibrotic layer thickness) (device related fibrosis),Skin observation around the coated substrate [7],"Drug release profiles, heat press process versus spray coating process [8]"
–,"C[C@@H]1C[C@H]2[C@@H]3CCC4=CC(=O)C=C[C@]4(C)[C@@]3(F)[C@@H](O)C[C@]2(C)[C@@]1(O)C(=O)COC(=O)OCCOCCOCCOC(=O)OCC(=O)[C@@]1(O)[C@H](C)C[C@H]2[C@@H]3CCC4=CC(=O)C=C[C@]4(C)[C@@]3(F)[C@@H](O)C[C@@]21C [Compound 1, dexamethasone-triethylene glycol-dexamethasone]",lower and longer sustained release,quick release of coating from the surface,sustained dexamethasone release,no changes,no changes in release properties,surface erosion,"slow, sustained drug release",reduced,sustained release,statistically thinner,Skin bleaching was noted,similar
–,dexamethasone-hexane-dexamethasone [Compound 4],–,–,–,–,–,–,–,–,–,statistically thinner,–,–
consistent drug release,hydrocortisone-triethylene glycol-hydrocortisone [Compound 2],–,–,–,–,–,–,–,–,–,–,–,–
